Data from US20220088016A1, “CANCER TREATMENT USING MULTI-TARGETED KINASE INHIBITOR IN COMBINATION OF PROTEIN KINASE BIOMARKERS” (ZHEJIANG CROWNMAB BIOTECH CO. LTD., priority 2019, published 2022).

Assays:
[1] = molecular target: ABL1 (T315I)-nonphosphorylated (Homo sapiens, UniProt P00519, T315I); assay: Kinase profiling; assay type: binding; conditions: read-out: % Ctrl @ 1000 nM
[2] = molecular target: ABL1 (T315I)-phosphorylated (Homo sapiens, UniProt P00519, T315I); assay: Kinase profiling; assay type: binding; conditions: read-out: % Ctrl @ 1000 nM
[3] = molecular target: ABL2 (Homo sapiens, UniProt P42684); assay: Kinase profiling; assay type: binding; conditions: read-out: % Ctrl @ 1000 nM
[4] = molecular target: ADCK3 (Homo sapiens, UniProt Q8NI60); assay: Kinase profiling; assay type: binding; conditions: read-out: % Ctrl @ 1000 nM
[5] = molecular target: ARK5 (Homo sapiens, UniProt O60285); assay: Kinase profiling; assay type: binding; conditions: read-out: % Ctrl @ 1000 nM
[6] = molecular target: BMPR1B (Homo sapiens, UniProt O00238); assay: Kinase profiling; assay type: binding; conditions: read-out: % Ctrl @ 1000 nM
[7] = molecular target: CAMKK1 (Homo sapiens, UniProt Q8N5S9); assay: Kinase profiling; assay type: binding; conditions: read-out: % Ctrl @ 1000 nM
[8] = molecular target: CDK4-cyclinD3 (Homo sapiens, UniProt P11802); assay: Kinase profiling; assay type: binding; conditions: read-out: % Ctrl @ 1000 nM
[9] = molecular target: DRAK1 (Homo sapiens, UniProt Q9UEE5); assay: Kinase profiling; assay type: binding; conditions: read-out: % Ctrl @ 1000 nM
[10] = molecular target: DRAK2 (Homo sapiens, UniProt O94768); assay: Kinase profiling; assay type: binding; conditions: read-out: % Ctrl @ 1000 nM
[11] = molecular target: DYRK1A (Homo sapiens, UniProt Q13627); assay: Kinase profiling; assay type: binding; conditions: read-out: % Ctrl @ 1000 nM
[12] = molecular target: ERK1 (Homo sapiens, UniProt P27361); assay: Kinase profiling; assay type: binding; conditions: read-out: % Ctrl @ 1000 nM
[13] = molecular target: FLT3 (K663Q) (Homo sapiens, UniProt P36888, K663Q); assay: Kinase profiling; assay type: binding; conditions: read-out: % Ctrl @ 1000 nM
[14] = molecular target: ICK (Homo sapiens, UniProt Q9UPZ9); assay: Kinase profiling; assay type: binding; conditions: read-out: % Ctrl @ 1000 nM
[15] = molecular target: INSRR (Homo sapiens, UniProt P14616); assay: Kinase profiling; assay type: binding; conditions: read-out: % Ctrl @ 1000 nM
[16] = molecular target: JAK1 (JH2domain-pseudokinase) (Homo sapiens, UniProt P23458); assay: Kinase profiling; assay type: binding; conditions: read-out: % Ctrl @ 1000 nM
[17] = molecular target: KIT (Homo sapiens, UniProt P10721); assay: Kinase profiling; assay type: binding; conditions: read-out: % Ctrl @ 1000 nM
[18] = molecular target: T1, MKNK2 (Homo sapiens, UniProt Q9HBH9); assay: Kinase profiling; assay type: binding; conditions: read-out: % Ctrl @ 1000 nM
T1 construct: T7 phage fusion (stated for most kinases of the panel only); made in house; host or cells: T7 phage in E. coli (BL21-derived) or HEK-293 cells

[19] = molecular target: T2, MLK1 (Homo sapiens, UniProt P80192); assay: Kinase profiling; assay type: binding; conditions: read-out: % Ctrl @ 1000 nM
T2 construct: T7 phage fusion (stated for most kinases of the panel only); made in house; host or cells: T7 phage in E. coli (BL21-derived) or HEK-293 cells

[20] = molecular target: PIK3CA (E545A) (Homo sapiens, UniProt P42336, E545A); assay: Kinase profiling; assay type: binding; conditions: read-out: % Ctrl @ 1000 nM
[21] = molecular target: PKAC-alpha (Homo sapiens, UniProt P17612); assay: Kinase profiling; assay type: binding; conditions: read-out: % Ctrl @ 1000 nM
[22] = molecular target: PLK2 (Homo sapiens, UniProt Q9NYY3); assay: Kinase profiling; assay type: binding; conditions: read-out: % Ctrl @ 1000 nM
[23] = molecular target: RET (V804M) (Homo sapiens, UniProt P07949, V804M); assay: Kinase profiling; assay type: binding; conditions: read-out: % Ctrl @ 1000 nM
[24] = molecular target: RPS6KA4 (Kin.Dom.2-C-terminal) (Homo sapiens, UniProt O75676); assay: Kinase profiling; assay type: binding; conditions: read-out: % Ctrl @ 1000 nM
[25] = molecular target: RSK1 (Kin.Dom.2-C-terminal) (Homo sapiens, UniProt Q15418); assay: Kinase profiling; assay type: binding; conditions: read-out: % Ctrl @ 1000 nM
[26] = molecular target: RSK3 (Kin.Dom.1-N-terminal) (Homo sapiens, UniProt Q15349); assay: Kinase profiling; assay type: binding; conditions: read-out: % Ctrl @ 1000 nM
[27] = molecular target: RSK4 (Kin.Dom.2-C-terminal) (Homo sapiens, UniProt Q9UK32); assay: Kinase profiling; assay type: binding; conditions: read-out: % Ctrl @ 1000 nM
[28] = molecular target: SNARK (Homo sapiens, UniProt Q9H093); assay: Kinase profiling; assay type: binding; conditions: read-out: % Ctrl @ 1000 nM
[29] = molecular target: TYK2 (JH1domain-catalytic) (Homo sapiens, UniProt P29597); assay: Kinase profiling; assay type: binding; conditions: read-out: % Ctrl @ 1000 nM
[30] = molecular target: VEGFR2 (Homo sapiens, UniProt P35968); assay: Kinase profiling; assay type: binding; conditions: read-out: % Ctrl @ 1000 nM
[31] = tested on: CD4 (T cell surface marker); assay: CD4 IHC test in MC-38 tumor; assay type: in vivo, mouse; conditions: MC-38 tumors; vs vehicle group
Experimental: MC38 tumor tissues were collected at the end of the in vivo efficacy trial. The tumor tissue was then embedded in paraffin. The expression of CD3/CD4/CD8/F4-80 were tested by immunohistochemistry stain.

Sequence of RPS6KA4 (Kin.Dom.2-C-terminal) (O75676 411-674 limits assumed): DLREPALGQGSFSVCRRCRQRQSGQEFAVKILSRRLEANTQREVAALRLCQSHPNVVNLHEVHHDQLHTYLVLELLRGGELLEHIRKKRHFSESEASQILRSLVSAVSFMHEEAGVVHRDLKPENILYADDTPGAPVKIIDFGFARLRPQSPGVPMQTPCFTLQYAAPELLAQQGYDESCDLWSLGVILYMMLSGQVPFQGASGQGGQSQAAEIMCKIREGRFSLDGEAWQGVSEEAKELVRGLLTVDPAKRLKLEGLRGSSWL
Sequence of DRAK1 (Q9UEE5 whole entry): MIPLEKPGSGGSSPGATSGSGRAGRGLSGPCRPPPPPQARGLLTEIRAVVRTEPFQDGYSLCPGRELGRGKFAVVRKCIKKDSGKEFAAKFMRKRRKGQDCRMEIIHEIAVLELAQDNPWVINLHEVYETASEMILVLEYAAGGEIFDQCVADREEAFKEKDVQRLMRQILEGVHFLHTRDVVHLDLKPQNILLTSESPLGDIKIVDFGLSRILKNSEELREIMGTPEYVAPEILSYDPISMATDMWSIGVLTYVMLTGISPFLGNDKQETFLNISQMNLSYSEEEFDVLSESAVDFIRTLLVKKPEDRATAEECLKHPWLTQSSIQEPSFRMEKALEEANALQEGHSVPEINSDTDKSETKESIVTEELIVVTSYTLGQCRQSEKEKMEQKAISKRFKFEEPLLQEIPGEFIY
Sequence of RSK4 (Kin.Dom.2-C-terminal) (Q9UK32 426-683 limits assumed): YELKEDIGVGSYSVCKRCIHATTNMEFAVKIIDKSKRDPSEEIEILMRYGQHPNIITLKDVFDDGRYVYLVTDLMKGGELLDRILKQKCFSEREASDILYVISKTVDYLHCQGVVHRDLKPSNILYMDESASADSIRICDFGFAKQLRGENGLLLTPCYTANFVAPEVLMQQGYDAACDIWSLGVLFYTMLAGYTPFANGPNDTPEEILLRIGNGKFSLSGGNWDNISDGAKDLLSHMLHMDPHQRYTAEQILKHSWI
Sequence of SNARK (Q9H093 whole entry): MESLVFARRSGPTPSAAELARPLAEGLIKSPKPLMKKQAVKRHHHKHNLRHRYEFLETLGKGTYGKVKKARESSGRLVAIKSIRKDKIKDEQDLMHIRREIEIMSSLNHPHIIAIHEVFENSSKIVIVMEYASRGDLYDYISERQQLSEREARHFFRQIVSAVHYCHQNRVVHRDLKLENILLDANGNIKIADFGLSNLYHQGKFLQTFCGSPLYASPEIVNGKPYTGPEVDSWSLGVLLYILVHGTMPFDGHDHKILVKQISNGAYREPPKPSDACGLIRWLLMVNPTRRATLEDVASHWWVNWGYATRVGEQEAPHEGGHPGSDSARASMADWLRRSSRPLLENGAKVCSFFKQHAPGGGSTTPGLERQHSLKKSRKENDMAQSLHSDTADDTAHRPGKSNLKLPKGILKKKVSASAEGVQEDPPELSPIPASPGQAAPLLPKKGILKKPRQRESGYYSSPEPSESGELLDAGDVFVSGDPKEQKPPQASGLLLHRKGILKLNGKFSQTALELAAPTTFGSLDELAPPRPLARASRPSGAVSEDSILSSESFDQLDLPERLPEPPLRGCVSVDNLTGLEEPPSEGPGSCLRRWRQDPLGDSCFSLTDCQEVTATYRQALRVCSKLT
Sequence of TYK2 (JH1domain-catalytic) (P29597 897-1176 limits assumed): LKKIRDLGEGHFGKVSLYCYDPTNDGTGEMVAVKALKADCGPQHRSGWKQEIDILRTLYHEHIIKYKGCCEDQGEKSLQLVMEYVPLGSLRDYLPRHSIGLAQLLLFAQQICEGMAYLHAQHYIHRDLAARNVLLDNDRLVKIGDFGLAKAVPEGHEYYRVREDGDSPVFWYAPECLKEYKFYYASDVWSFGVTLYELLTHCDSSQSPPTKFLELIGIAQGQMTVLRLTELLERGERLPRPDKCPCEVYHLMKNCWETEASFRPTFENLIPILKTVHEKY
Sequence of DRAK2 (O94768 whole entry): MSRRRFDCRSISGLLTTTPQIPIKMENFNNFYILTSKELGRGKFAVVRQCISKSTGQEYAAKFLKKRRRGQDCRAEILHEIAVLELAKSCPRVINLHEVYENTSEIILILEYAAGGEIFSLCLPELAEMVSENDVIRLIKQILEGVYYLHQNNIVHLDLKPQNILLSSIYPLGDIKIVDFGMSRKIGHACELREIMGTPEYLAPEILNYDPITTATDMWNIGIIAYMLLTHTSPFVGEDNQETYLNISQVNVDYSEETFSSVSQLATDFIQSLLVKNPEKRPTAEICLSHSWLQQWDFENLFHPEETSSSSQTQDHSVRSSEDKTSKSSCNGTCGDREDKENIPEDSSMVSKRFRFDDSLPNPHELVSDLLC
Sequence of RSK3 (Kin.Dom.1-N-terminal) (Q15349 59-318 limits assumed): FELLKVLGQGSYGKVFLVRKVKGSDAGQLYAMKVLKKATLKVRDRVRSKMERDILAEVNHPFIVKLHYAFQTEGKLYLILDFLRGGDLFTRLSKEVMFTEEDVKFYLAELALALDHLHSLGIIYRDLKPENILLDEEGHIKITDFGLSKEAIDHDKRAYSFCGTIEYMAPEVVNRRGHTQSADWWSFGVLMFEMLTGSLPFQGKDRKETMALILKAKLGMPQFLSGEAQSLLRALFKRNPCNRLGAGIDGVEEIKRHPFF
Sequence of CDK4-cyclinD3 (P11802 2-303): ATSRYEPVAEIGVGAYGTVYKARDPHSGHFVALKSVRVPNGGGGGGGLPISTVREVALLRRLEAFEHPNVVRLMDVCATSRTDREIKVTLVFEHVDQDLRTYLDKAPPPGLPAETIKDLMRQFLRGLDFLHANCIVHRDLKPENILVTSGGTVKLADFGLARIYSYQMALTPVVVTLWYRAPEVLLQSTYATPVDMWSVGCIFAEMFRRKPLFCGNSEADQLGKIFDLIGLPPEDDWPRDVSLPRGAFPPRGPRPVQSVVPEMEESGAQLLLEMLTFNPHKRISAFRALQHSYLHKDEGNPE
Sequence of CDK4-cyclinD3 (P30281 whole entry partner): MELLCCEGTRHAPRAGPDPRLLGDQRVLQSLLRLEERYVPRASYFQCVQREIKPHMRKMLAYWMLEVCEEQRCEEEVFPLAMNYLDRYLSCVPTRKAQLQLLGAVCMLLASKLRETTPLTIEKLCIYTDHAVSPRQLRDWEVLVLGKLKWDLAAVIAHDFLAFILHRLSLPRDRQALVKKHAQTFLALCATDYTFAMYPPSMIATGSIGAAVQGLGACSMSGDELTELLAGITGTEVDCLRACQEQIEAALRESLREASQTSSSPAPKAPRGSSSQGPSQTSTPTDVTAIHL
Sequence of RET (V804M) (P07949 29-1114 V804M): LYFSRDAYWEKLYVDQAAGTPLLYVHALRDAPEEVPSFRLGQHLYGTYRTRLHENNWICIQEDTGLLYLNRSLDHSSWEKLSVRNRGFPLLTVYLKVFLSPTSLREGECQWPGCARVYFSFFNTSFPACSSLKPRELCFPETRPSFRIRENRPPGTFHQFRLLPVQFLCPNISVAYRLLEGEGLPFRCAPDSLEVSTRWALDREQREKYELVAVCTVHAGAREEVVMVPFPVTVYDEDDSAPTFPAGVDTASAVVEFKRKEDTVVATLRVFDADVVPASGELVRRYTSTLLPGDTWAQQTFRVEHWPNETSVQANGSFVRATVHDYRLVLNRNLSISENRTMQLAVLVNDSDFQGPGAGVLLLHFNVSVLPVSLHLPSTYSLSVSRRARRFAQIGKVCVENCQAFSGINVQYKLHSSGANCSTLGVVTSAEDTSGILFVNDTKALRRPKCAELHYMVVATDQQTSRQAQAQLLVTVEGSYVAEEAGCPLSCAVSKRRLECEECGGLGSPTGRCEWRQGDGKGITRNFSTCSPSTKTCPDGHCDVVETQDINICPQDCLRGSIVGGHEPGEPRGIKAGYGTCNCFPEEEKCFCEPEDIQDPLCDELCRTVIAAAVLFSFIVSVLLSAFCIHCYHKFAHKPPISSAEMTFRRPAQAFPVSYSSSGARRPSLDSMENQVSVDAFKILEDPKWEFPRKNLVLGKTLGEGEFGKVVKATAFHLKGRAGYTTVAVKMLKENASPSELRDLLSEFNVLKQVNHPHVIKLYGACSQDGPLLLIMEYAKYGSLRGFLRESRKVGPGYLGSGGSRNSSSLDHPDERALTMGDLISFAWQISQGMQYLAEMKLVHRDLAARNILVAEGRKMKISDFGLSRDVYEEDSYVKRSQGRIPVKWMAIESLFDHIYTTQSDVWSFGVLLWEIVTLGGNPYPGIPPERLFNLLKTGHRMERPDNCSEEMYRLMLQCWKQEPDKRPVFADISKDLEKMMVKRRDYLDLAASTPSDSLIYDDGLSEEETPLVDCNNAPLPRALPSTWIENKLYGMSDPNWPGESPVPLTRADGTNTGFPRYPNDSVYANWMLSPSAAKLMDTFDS
Sequence of ICK (Q9UPZ9 whole entry): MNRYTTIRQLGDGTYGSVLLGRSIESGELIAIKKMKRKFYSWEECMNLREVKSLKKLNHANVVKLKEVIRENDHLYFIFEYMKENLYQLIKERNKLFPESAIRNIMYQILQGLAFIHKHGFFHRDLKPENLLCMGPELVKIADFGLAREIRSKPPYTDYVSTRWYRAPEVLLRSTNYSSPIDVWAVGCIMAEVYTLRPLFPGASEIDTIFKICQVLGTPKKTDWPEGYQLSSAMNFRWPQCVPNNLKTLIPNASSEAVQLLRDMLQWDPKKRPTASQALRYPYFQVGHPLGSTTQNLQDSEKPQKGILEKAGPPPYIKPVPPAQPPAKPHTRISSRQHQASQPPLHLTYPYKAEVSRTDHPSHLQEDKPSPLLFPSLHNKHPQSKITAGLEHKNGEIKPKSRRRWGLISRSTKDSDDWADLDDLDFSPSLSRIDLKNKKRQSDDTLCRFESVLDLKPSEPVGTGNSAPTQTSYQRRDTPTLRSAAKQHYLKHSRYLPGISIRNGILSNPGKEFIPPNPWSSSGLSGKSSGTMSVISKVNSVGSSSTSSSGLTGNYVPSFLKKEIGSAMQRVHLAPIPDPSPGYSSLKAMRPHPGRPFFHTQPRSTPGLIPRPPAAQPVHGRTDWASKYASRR

Cc1cc(Oc2cc(NC(=O)C3CC3)ncn2)ccc1NC(=O)Nc1ccc(Cl)c(C(F)(F)F)c1 [CBT-102]
remaining activity at 1 µM [1]: 2.3%
remaining activity at 1 µM [2]: 51%
remaining activity at 1 µM [3]: 40%
remaining activity at 1 µM [4]: 100%
remaining activity at 1 µM [5]: 100%
remaining activity at 1 µM [6]: 99%
remaining activity at 1 µM [7]: 88%
remaining activity at 1 µM [8]: 100%
remaining activity at 1 µM [9]: 100%
remaining activity at 1 µM [10]: 100%
remaining activity at 1 µM [11]: 97%
remaining activity at 1 µM [12]: 91%
remaining activity at 1 µM [13]: 3.9%
remaining activity at 1 µM [14]: 100%
remaining activity at 1 µM [15]: 100%
remaining activity at 1 µM [16]: 100%
remaining activity at 1 µM [17]: 0%
remaining activity at 1 µM [18]: 83%
remaining activity at 1 µM [19]: 94%
remaining activity at 1 µM [20]: 100%
remaining activity at 1 µM [21]: 97%
remaining activity at 1 µM [22]: 93%
remaining activity at 1 µM [23]: 3.3%
remaining activity at 1 µM [24]: 100%
remaining activity at 1 µM [25]: 94%
remaining activity at 1 µM [26]: 98%
remaining activity at 1 µM [27]: 73%
remaining activity at 1 µM [28]: 100%
remaining activity at 1 µM [29]: 5.6%
remaining activity at 1 µM [30]: 1.4%
effect on T cell surface marker CD4 (IHC) [31]: no significant effect
